# From patent publication US20020152038A1, “Selection method for aroma substances” (priority 2000, published 2002)
# Where two headings read alike, the source gives them in different places.
# What was measured:
# [1] = Headspace above the milkshake, SPME-GC, relative partition parameters; format: physicochemical
# Method: (§1) The procedure is analogous in all examples.
# The example reflects the taste impression which is perceived via the olfactory epithelium, when enjoying a milkshake. The milkshake is prepared as is generally customary. The mixture of 39 aroma substances is incorporated into the abovementioned milk product (1) in an amount of 0.2%. 50 g of this mixture are transferred to a 100 ml Erlenmeyer flask sealed with a septum and left to stand for 2 h at 35° C. with gentle stirring. The headspace above the mixture is extracted over 15 min using solid phase microextraction (SPME). The SPME needle is desorbed in a GC injector, and a gas chromatogram is recorded. […] The analytical results are then used mathematically as described above.
# [2] = Headspace above the lemonade, SPME, relative partition parameters; format: physicochemical
# Method: as §1
# The example reflects the taste impression which is perceived from via the olfactory epithelium, when enjoying a lemonade drink. The mixture of 39 odorants is incorporated into the above-mentioned lemonade drink (1) in an amount of 0.05%. 50 g of the lemonade drink are transferred to a 100 ml Erlenmeyer flask sealed with a septum and left to stand for 2 h at 35° C. with gentle stirring. The headspace above the lemonade is extracted using a SPME over 15 min. […] The analytical results are then used mathematically as described above.
# [3] = according to COSMO-RS correlation
# [4] = according to COSMO-RS correlation; remark: listed apart in the source
# [5] = headspace vs milkshake, 0.2% aroma mixture, 2 h at 35° C., SPME 15 min
# [6] = headspace vs lemonade, 0.05% odorant mixture, 2 h at 35° C., SPME 15 min
Molecule,"Activity (logarithmic partition parameter above a milkshake) [1, 5]","Activity (logarithmic partition parameter above lemonade) [2, 6]","Differences (Activity minus Prediction, milkshake) [3]","Differences (Activity minus Prediction, lemonade) [4]",Activity (logarithmic partition parameter above a milkshake) [1],Activity (logarithmic partition parameter above lemonade) [2]
C=C(C)[C@H]1CC=C(C)CC1 [Limonene D],1.088,0.925,−0.090,0.072,,
"CCCCCC/C(C=O)=C\c1ccccc1 [Hexylcinnamaldehyde, α]",−1.949,−1.911,−0.674,−0.710,,
C=C1C2CCC(C2)C1(C)C (centres unmarked) [Camphene],0.985,0.465,−0.169,−0.226,,
CC(C=O)Cc1ccc(C(C)(C)C)cc1 (centres unmarked) [Lilial],−0.690,−0.656,0.135,0.074,,
C=CCc1ccc(O)c(OC)c1 [Eugenol],−0.557,−0.841,0.528,0.454,,
"CC(=O)/C=C/C1C(C)=CCCC1(C)C (stereo not drawn) [Ionone, α, Ionone, alpha]",−0.001,0.024,0.158,−0.060,,
CC1=CCC2CC1C2(C)C (stereo not drawn) [alpha-Pinene],1.078,0.363,0.067,−0.110,,
C=CC(C)CCCC(C)(C)O (centres unmarked) [Dihydromyrcenol],0.432,0.334,0.135,0.513,,
CC(=O)OC(C)c1ccccc1 (centres unmarked) [Styrolyl acetate],0.402,0.312,0.554,0.641,,
CCOC(=O)c1ccccc1C(=O)OCC [Diethyl phthalate],−1.607,−1.895,−0.553,−1.693,,
C=CC(C)(O)CCC=C(C)C (centres unmarked) [Linalool],0.225,0.141,−0.231,0.246,,
CC(=O)OC(C)(C)C1CC=C(C)CC1 (centres unmarked) [Terpinyl acetate],,,,,0.418,0.644
CC(CC=O)CCCC(C)(C)O (centres unmarked) [Hydroxycitronellal],−1.679,−1.879,−1.369,−1.868,,
CC(=O)O[C@]1(C)CC[C@@]23C[C@@H]1C(C)(C)[C@@H]2CC[C@H]3C [Cedryl acetate],,,,,−1.690,−1.653
CC(=O)OCc1ccccc1 [Benzyl acetate],0.306,0.086,0.515,0.552,,
C[C@@H]1CC[C@H]2C(C)(C)[C@H]3C[C@@]12CC[C@@]3(C)O [Cedrol],−1.077,−0.895,−0.025,0.196,,
CC1=CCC(C(C)C)=CC1 [gamma-Terpinene],1.064,1.032,−0.004,0.411,,
Caryophyllene,,,,,1.132,0.827

# Second part, led by results:
"Activity (logarithmic partition parameter above a milkshake) [1, 5]","Activity (logarithmic partition parameter above lemonade) [2, 6]","Differences (Activity minus Prediction, milkshake) [3]","Differences (Activity minus Prediction, lemonade) [4]",Molecule,Activity (logarithmic partition parameter above a milkshake) [1],Activity (logarithmic partition parameter above lemonade) [2]
0.707,0.994,0.480,0.587,CC(=O)O[C@@H]1C[C@H]2CC[C@]1(C)C2(C)C (racemic) [Isobornyl acetate],,
−0.819,−1.955,−0.391,−0.783,OCc1ccccc1 [Benzyl alcohol],,
−0.154,−0.061,0.047,0.072,"CC(=O)/C=C/C1=C(C)CCCC1(C)C [Ionone, β, Ionone, beta]",,
−0.053,−0.413,,,CC(C)=CCC/C(C)=C/CO [Geraniol],,
−0.528,−0.462,0.215,0.201,CC(C)CCOC(=O)c1ccccc1O [Isoamyl salicylate],,
−3.313,−3.037,−1.057,−0.340,O=C(OCc1ccccc1)c1ccccc1O [Benzyl salicylate],,
0.413,0.151,−0.864,−1.038,CC(=O)OCC=C(C)C [Prenyl acetate],,
,,0.244,0.162,O=c1ccc2ccccc2o1 [Coumarin],,
0.199,0.044,0.138,0.207,CC(C)=CCCC(C)CCO (centres unmarked) [Citronellol],,
0.188,0.001,0.225,0.272,"OCCc1ccccc1 [PEA, phenylethyl alcohol]",,
0.378,0.523,0.537,0.898,"CC(=O)OC(C)(C)Cc1ccccc1 [DMBCA, dimethylbenzylcarbinyl acetate]",,
1.029,0.485,−0.082,−0.189,C=C1CCC2CC1C2(C)C (stereo not drawn) [Beta-Pinene],,
